# Square brackets hold non-standard residues; d marks the D form. Peptide text beside a SMILES is read from it. * marks the point of attachment. HYNIC = NNc1ccc(C(=O)*)cn1; AEEA = NCCOCCOCC(=O)O
# How the values were obtained:
# [1] = In vitro solution stability in the presence of excess cysteine (radio-HPLC); type: physicochemical; settings: 1 mg/mL cysteine, pH = 7.4, 37°C, mean ± SD
# Protocol: HYNIC-AF7p solution (20 μL, 60 μg/mL in H2O), of tricine solution (100 μL, 100 mg/mL in 25 mM succinate buffer, pH 5.0), SnCl2 solution (10 μL, 3 mg/mL in 0.1 M HCl) and Na^99mTcO4 (100 μL, 370 MBq) in saline were added into a 5 mL Eppendorf tube. The reaction mixture was kept at room temperature for 10 min. To the reaction mixture above was added 100 μL of the TPPTS solution (50 mg/mL in 25 mM succinate buffer, pH 5.0). The vial containing the reaction mixture was sealed, cramped, and heated at 90°C for 30 min. After cooling to room temperature, sample was analyzed by radio-HPLC. The radio-HPLC method used a HP Hewlett Packard Series 1100 HPLC system equipped with a Radioflow Detector LB509 and a reversed-phase Zorbax SB-C18 column (4.6 mm × 250 mm, 5 μm). The flow rate was 1 mL/min. The gradient mobile phase started with 90% solvent A (0.1% TFA in water) and 10% solvent B (0.1% TFA in acetonitrile) to 30% solvent A and 70% solvent B at 24 min to 0% solvent A and 100% solvent B at 27 min, followed with 90% solvent A and 10% solvent B at 30 min. […]
# 100 μL of [^99mTc]-(HYNIC-AF7P)(tricine)(TPPTS) was added to either 0.9% physiological saline or 1 mg/mL cysteine solution. […] After 1 h, 2 h, 3 h, 4 h, 5 h and 6 h incubation, the radiochemical purity for [^99mTc]-(HYNIC-AF7P)(tricine)(TPPTS) at each time point was detected by radio-HPLC as described above.
# [2] = test system: A549 tumor (little MT1-MMP); assay: SPECT imaging of A549 tumor-bearing mice; type: in vivo; settings: i.v., A549 tumor bearing model, mean ± SD
# Protocol: All animal experiments were approved by Jilin University Health Science Center Animal Care and Use Committee. Human breast carcinoma cell line MDA-MB-231 with high MT1-MMP expression and human lung adenocarcinomaepithelial cell line A549 with low MT1-MMP expression were cultured in DMEM medium containing 10% (v/v) fetal bovine serum (Invitrogen) supplemented with penicillin (100 μg/mL) and streptomycin (100 μg/mL) at 37°C with 5% CO2. MDA-MB-231 and A549 tumor models were established by subcutaneous injection of 5×10^6 cells into the upper right front flank of female athymic nude mice (Department of Experimental Animal, Peking University Health Science Center). Tumor growth was monitored by caliper measurements three times a week after the tumors are palpable. The mice were used for SPET/CT imaging when the tumor volume reached about 200 mm3 (about 14 days after tumor inoculations). The tumor volume was determined as the formula: V = a × (b^2)/2, where a and b are the length and width of each tumor in mm respectively. During the injection and image acquisition process, the mice were anesthetized with 2.5% isoflurane in oxygen delivered at a flow rate of 1.5 L/min.
# The imaging study was performed using the female BALB/c nude mice bearing the MDA-MB-231 tumors and A549 tumors. Each tumor-bearing mouse was administered intravenously with [^99mTc]-(HYNIC-AF7P)(tricine)(TPPTS) (22.2 MBq/mice) in 0.1 mL saline. For blocking test, 200 μg free AF7P was intravenously injected into MDA-MB-231 tumor bearing mice 30 min before [^99mTc]-(HYNIC-AF7P)(tricine)(TPPTS) was injected. Animals were placed prone on a two-head γ-camera (SIEMENS, E. CAM) equipped with a parallel-hole, low-energy, and high-resolution collimator. Posterior images were acquired at 0.5, 2 and 4 hours post injection (p.i.). The acquisition count limits were set at 700k. After completion of imaging, animals were sacrificed by cervical dislocation.
compound,measurement,setting,value
"CC(C)C[C@H](NC(=O)[C@H](Cc1ccccc1)NC(=O)[C@@H](NC(=O)[C@H](CCCCN)NC(=O)[C@@H](NC(=O)[C@H](CC(N)=O)NC(=O)[C@H](Cc1c[nH]cn1)NC(=O)[C@H](CC(C)C)NC(=O)[C@H](Cc1c[nH]cn1)NC(=O)[C@H](CCCCN)NC(=O)[C@H](Cc1c[nH]c2ccccc12)NC(=O)[C@H](Cc1c[nH]cn1)NC(=O)c1ccc(NN)nc1)[C@@H](C)O)[C@@H](C)O)C(=O)NCCOCCOCC(=O)O [[^99mTc]-(HYNIC-AF7P)(tricine)(TPPTS), metal not drawn] ({HYNIC}-HWKHLHNTKTFL[AEEA]-OH)",original form (radiochemical purity) in solution containing excess cysteine,[1]; after 6 hours incubation,94.2 ±1.72%
same,original form (radiochemical purity) in solution containing excess cysteine,[1]; at the beginning,96.8 ± 1.52%
same,"tumor uptake (SPECT ROI), A549 tumor",[2]; 0.5 h p.i.,1.35±0.11 %ID/g
same,"tumor uptake (SPECT ROI), A549 tumor",[2]; 4 h p.i.,1.01± 0.00 %ID/g
same,"tumor uptake (SPECT ROI), A549 tumor",[2]; time point not printed (between 0.5 h and 4 h),1.03±0.05 %ID/g
